Structures are written as SMILES.

As usually defined, the IC50 is the concentration that inhibits the measured activity by half. As a reminder, the IC90 is the concentration at which the effect reaches the 90% level.

The experiment relates to Plasmodium berghei. The experiment in a line: Luciferase/luciferin-expressing antifolate-resistant parasites were used to infect a culture of HepG2 cells that were pre-incubated with compounds. Infected hepatocytes emit light due to the luciferase reaction. Assay results are presented as the percent inhibition of light emission compared to control. […]. As to conditions: sporozoite; for IC90: read-out: LUCIFERASE INFECTION ASSAY - IC90. In kind it is functional.

Where [1] appears, read: read-out: LUCIFERASE INFECTION ASSAY - IC50.

`Cc1ccc2nc(NC(=O)COCc3ccccc3)c(C(=O)NC3CCCC3)n2c1`: the IC90 is over 8.12 µM. In addition, the IC50 (PBLUC_HILL_SLOPE 14.3, PBLUC_R_SQUARED 0.563, read-out: LUCIFERASE INFECTION ASSAY - IC50) was 7.54 µM.

Take `CS(=O)(=O)Nc1cccc(-c2cn3c(-c4cccc(CO)c4)cnc3cn2)c1`: the IC90 was over 8.37 µM. Also, the IC50 under setting [1] is over 8.37 µM.

Regarding `CN(C)S(=O)(=O)c1cc(C(=O)Nc2nc(-c3ccccc3)cn2/N=C/c2ccccc2)ccc1Cl`, the concentration for an effect of 90% (IC90) is over 10 µM. Also, the IC50 (PBLUC_HILL_SLOPE 2.59, PBLUC_R_SQUARED 0.747, read-out: LUCIFERASE INFECTION ASSAY - IC50) was 5.75 µM.

On to `COc1cc(/C=N/n2cnc3scc(-c4ccc(C)cc4)c3c2=O)ccc1OC(=O)OC(C)(C)C`, for which the IC90 is over 10 µM. The IC50 (HEPG2TOX_HILL_SLOPE 2.15, HEPG2TOX_R_SQUARED 0.967, PBLUC_HILL_SLOPE 2.51, PBLUC_R_SQUARED 0.415, read-out: LUCIFERASE INFECTION ASSAY - IC50) stood at 4.26 µM.

On to `O=C(NNc1ccccc1)c1cccs1`, for which the IC90 was 7.33 µM. Further, for the setting “HEPG2TOX_HILL_SLOPE 91.6, HEPG2TOX_R_SQUARED 0.623, PBLUC_HILL_SLOPE 5.23, PBLUC_R_SQUARED 0.266, read-out: LUCIFERASE INFECTION ASSAY - IC50”, the 50% inhibitory concentration (IC50) is 4.82 µM.

As to `CN(Cc1ccccc1N1CCCCC1)C(=O)c1ccc(NC(=O)C2CC2)cc1`, the IC90 amounted to 3.37 µM. The IC50 under setting [1] came to 2.9 µM.

Turning to `Cc1ccc(NC2c3ccccc3-c3ccccc32)cc1`, the IC90 was over 10 µM. Besides, for the setting “PBLUC_HILL_SLOPE 2, PBLUC_R_SQUARED 0.71, read-out: LUCIFERASE INFECTION ASSAY - IC50”, the IC50 turned out to be 6.95 µM.

Consider `Cc1c(C(=O)Nc2ccccc2C(=O)NC2CC2)cnn1-c1cccc(C(F)(F)F)c1`, for which the IC90 was 0.41 µM. Also, the IC50 (HEPG2TOX_HILL_SLOPE 8.3, HEPG2TOX_R_SQUARED 0.547, PBLUC_HILL_SLOPE 12.1, PBLUC_R_SQUARED 0.521, read-out: LUCIFERASE INFECTION ASSAY - IC50) was determined as 0.342 µM.

Turning to `COc1cc(OC)nc(Nc2nc(C(N)C3CCCCC3)cs2)n1` (stereo unspecified), the IC90 is over 9.44 µM. Further, where the note is “PBLUC_HILL_SLOPE 67.6, PBLUC_R_SQUARED 0.122, read-out: LUCIFERASE INFECTION ASSAY - IC50”, the IC50 was determined as 9.15 µM.

On to `CCOC(=O)c1ccc(N2C(=O)c3ccccc3C(C=NNC(=O)Cc3ccc(F)cc3)C2=O)cc1` (stereo unspecified), for which the IC90 is over 10 µM. Moreover, where the note is “HEPG2TOX_HILL_SLOPE 7.51, HEPG2TOX_R_SQUARED 0.875, PBLUC_HILL_SLOPE 2.71, PBLUC_R_SQUARED 0.377, read-out: LUCIFERASE INFECTION ASSAY - IC50”, the IC50 worked out at 8.78 µM.

As for `COc1ccc(-c2cs/c(=N\c3ccccc3C(F)(F)F)n2/N=C/c2ccc(O)c(O)c2)cc1`, the IC90 is over 10 µM. Also, the concentration for half-maximal inhibition (IC50) (HEPG2TOX_HILL_SLOPE 0.402, HEPG2TOX_R_SQUARED 0.786, PBLUC_HILL_SLOPE 2.07, PBLUC_R_SQUARED 0.586, read-out: LUCIFERASE INFECTION ASSAY - IC50) stood at 3.82 µM.

As to `Cn1ccc2cc(-c3cnc4cnc(-c5cccc(C(=O)NCCO)c5)cn34)ccc21`, the IC90 is 3.63 µM. The IC50 (HEPG2TOX_HILL_SLOPE 4.1, HEPG2TOX_R_SQUARED 0.752, PBLUC_HILL_SLOPE 9.77, PBLUC_R_SQUARED 0.277, read-out: LUCIFERASE INFECTION ASSAY - IC50) came to 2.9 µM.

Take `Cc1nn(-c2ccccc2)c(N2CCCCC2)c1/C=N/Nc1ccc(C(F)(F)F)cn1`: the IC90 is over 10 µM. The IC50 under setting [1] was over 10 µM.

With `Clc1ccc(Sc2ncnc3ccsc23)cc1`, the IC90 worked out at 9.97 µM. Further, under “PBLUC_HILL_SLOPE 15.3, PBLUC_R_SQUARED 0.133, read-out: LUCIFERASE INFECTION ASSAY - IC50”, the concentration for half-maximal inhibition (IC50) was found to be 8.63 µM.

As to `CCOC(=O)c1sc2nc(CSc3ccccc3)nc(NCC(O)CN(C)C)c2c1C` (stereo unspecified), the IC90 is over 10 µM. Moreover, where the note is “HEPG2TOX_HILL_SLOPE 7.33, HEPG2TOX_R_SQUARED 0.474, PBLUC_HILL_SLOPE 9.13, PBLUC_R_SQUARED 0.72, read-out: LUCIFERASE INFECTION ASSAY - IC50”, the IC50 amounted to 9.05 µM.

On to `Cc1cnc(C(=O)Nc2cc(C(F)(F)F)ccc2N2CCN(C)CC2)cn1`, for which the IC90 is over 10 µM. For the same compound, for the setting “PBLUC_HILL_SLOPE 0.31, PBLUC_R_SQUARED 0.853, read-out: LUCIFERASE INFECTION ASSAY - IC50”, the IC50 is over 10 µM.

Take `CSc1sc(C(=O)N/N=C/c2ccccc2)c2c1C1(CCC2)SCCS1`: the IC90 was over 7.85 µM. Also, for the setting “PBLUC_HILL_SLOPE 1.27, PBLUC_R_SQUARED 0.257, read-out: LUCIFERASE INFECTION ASSAY - IC50”, the IC50 worked out at 5.56 µM.

Consider `CCOC(=O)N1CCN(C2c3ccccc3-c3ccccc32)CC1`, for which the IC90 was over 10.2 µM. Under setting [1], the IC50 was found to be 8.79 µM.

On to `Cn1c(N)c(C(=O)c2cccc(S(=O)(=O)N3CCc4ccccc43)c2)c(=O)[nH]c1=O`, for which the IC90 is over 10 µM. Besides, the IC50 (PBLUC_HILL_SLOPE 10, PBLUC_R_SQUARED 0.0166, read-out: LUCIFERASE INFECTION ASSAY - IC50) is over 10 µM.

Consider `Cc1ccc(-n2c(C)cc(C(=O)COC(=O)c3[nH]nc4ccccc34)c2C)cc1`, for which the IC90 is over 10 µM. The IC50 (HEPG2TOX_HILL_SLOPE 1.65, HEPG2TOX_R_SQUARED 0.879, read-out: LUCIFERASE INFECTION ASSAY - IC50) was over 10 µM.

As for `Cc1cnc(NC(=O)c2ccc(C3SCCS3)cc2)s1`, the concentration for an effect of 90% (IC90) is over 10 µM. In addition, the IC50 under setting [1] was 0.273 µM.

On to `O=C(CSc1nnnn1CC1CCCO1)NCc1ccc2c(c1)OCO2` (stereo unspecified), for which the IC90 was over 10 µM. Further, under setting [1], the IC50 was over 10 µM.

As to `c1ccc(-c2nc3sccn3c2CSc2nnnn2C2CCCC2)cc1`, the IC90 was over 10 µM. The half-maximal inhibitory concentration (IC50) (PBLUC_HILL_SLOPE 2.99, PBLUC_R_SQUARED 0.0258, read-out: LUCIFERASE INFECTION ASSAY - IC50) came out at 8.01 µM.

Regarding `N#CC(C#N)=C/C=C(/Sc1nc(-c2ccccc2)cs1)c1ccc(Cl)cc1`, the IC90 is over 8.13 µM. In addition, for the setting “FFLUC_HILL_SLOPE 19.5, FFLUC_R_SQUARED 0.704, PBLUC_HILL_SLOPE 6.45, PBLUC_R_SQUARED 0.183, read-out: LUCIFERASE INFECTION ASSAY - IC50”, the IC50 was over 8.13 µM.

Regarding `CCOC(=O)c1oc2ccc(Br)cc2c1CSc1nnc(-c2cccs2)n1Cc1ccccc1`, the IC90 is over 10 µM. For the same compound, the half-maximal inhibitory concentration (IC50) (HEPG2TOX_HILL_SLOPE 1.32, HEPG2TOX_R_SQUARED 0.694, read-out: LUCIFERASE INFECTION ASSAY - IC50) was over 10 µM.

For the compound `Cc1cc(/C=N/Nc2nncc3ccccc23)c(C)n1-c1ccc(I)cc1`, the concentration for an effect of 90% (IC90) is over 10 µM. Further, under “PBLUC_HILL_SLOPE 2.06, PBLUC_R_SQUARED 0.597, read-out: LUCIFERASE INFECTION ASSAY - IC50”, the IC50 was found to be 6.98 µM.

Consider `FC(F)(F)c1nc2ccccc2n1-c1cc(-c2ccccc2)n[nH]1`, for which the IC90 is over 10 µM. In addition, under “HEPG2TOX_HILL_SLOPE 5.49, HEPG2TOX_R_SQUARED 0.606, read-out: LUCIFERASE INFECTION ASSAY - IC50”, the IC50 was over 10 µM.

Turning to `CSc1ccccc1NC(=O)CN(C)c1nc(CSc2ccccc2)nc2sc3c(c12)CCC3`, the IC90 is over 10 µM. The half-maximal inhibitory concentration (IC50) under setting [1] was over 10 µM.

Regarding `Cc1c(Cl)c(=O)[nH]c2ccccc12`, the IC90 was over 17 µM. In addition, the IC50 (HEPG2TOX_HILL_SLOPE 0.732, HEPG2TOX_R_SQUARED 0.944, PBLUC_HILL_SLOPE 0.944, PBLUC_R_SQUARED 0.141, read-out: LUCIFERASE INFECTION ASSAY - IC50) was over 17 µM.

For `CCC(C)NC(=O)c1c(NC(=O)C2CCCC2)nc2ccc(C)cn12` (stereo unspecified), the IC90 was over 9.64 µM. For the same compound, the IC50 (FFLUC_HILL_SLOPE 1.17, FFLUC_R_SQUARED 0.173, read-out: LUCIFERASE INFECTION ASSAY - IC50) was over 9.64 µM.

Take `O=C(CN1CCN(CCOc2ccccc2)CC1)Nc1cc(C(F)(F)F)ccc1Cl`: the IC90 was over 10 µM. Besides, the concentration for half-maximal inhibition (IC50) (PBLUC_HILL_SLOPE 3.77, PBLUC_R_SQUARED 0.518, read-out: LUCIFERASE INFECTION ASSAY - IC50) is 7.08 µM.

Take `O=C(CSc1ncnc2ccccc12)NN1C(=O)NC(c2ccccc2)(c2ccccc2)C1=O`: the IC90 was over 10 µM. In addition, under setting [1], the IC50 is over 10 µM.

As to `C#CCCCCCCCCC(=O)NO`, the IC90 is over 10 µM. Also, the IC50 under setting [1] was over 10 µM.

As for `COC(=O)c1sccc1Oc1ccc(C(F)(F)F)cc1NC(=S)Nc1cc(Cl)cc(Cl)c1`, the IC90 was over 6.33 µM. The IC50 under setting [1] was over 6.33 µM.

As to `CC(C)(C)c1ccc(NC(=O)NCCSCc2ccco2)cc1`, the 90% effect concentration (IC90) is over 9.93 µM. Moreover, the IC50 under setting [1] is over 9.93 µM.

Turning to `Oc1cccc(Nc2nc(N3CCCCC3)c3ccccc3n2)c1`, the IC90 was over 10 µM. For the same compound, the 50% inhibitory concentration (IC50) under setting [1] is over 10 µM.

In the case of `O=C(Nc1nc2ccccn2c1C(=O)NC1CCCC1)c1ccc(Cl)cc1Cl`, the IC90 stood at 2.66 µM. Under “HEPG2TOX_HILL_SLOPE 1.22, HEPG2TOX_R_SQUARED 0.989, PBLUC_HILL_SLOPE 22.2, PBLUC_R_SQUARED 0.579, read-out: LUCIFERASE INFECTION ASSAY - IC50”, the IC50 was 2.41 µM.

In the case of `COc1ccc(-c2cncc(-c3ccc(O)c(OC)c3)n2)cc1`, the IC90 turned out to be 0.463 µM. For the same compound, the IC50 (HEPG2TOX_HILL_SLOPE 11.5, HEPG2TOX_R_SQUARED 0.964, PBLUC_HILL_SLOPE 4.2, PBLUC_R_SQUARED 0.828, read-out: LUCIFERASE INFECTION ASSAY - IC50) was found to be 0.274 µM.

The record behind these values is ChEMBL document CHEMBL4483862, “Open-source discovery of chemical leads for next-generation chemoprotective antimalarials” (2018).
